One test deals with T1, E. coli CsgA (Escherichia coli, UniProt P28307).
T1 construct: made in house; host or cells: E. coli NEB 3016 slyD::kan, pET11d
Briefly: In vitro ThioflavinT assay of CsgA aggregation (CsgA ThT Assay). The test is classed as biochemical. As to conditions: 1005 minutes; for remaining activity at 25 µM: compound 25 μM; for remaining activity at 100 µM: compound 100 μM. Put shortly: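 Purified C-terminal His-tagged CsgA, monomerised by desalting and 30-kDa filtration, at 2-20 μM with 20-40 μM ThT in 50 mM potassium phosphate pH 7.3, 1% DMSO, compounds 3.125-200 uM; room temperature, fluorescence (ex 438/em 495 nm) read every 15 min. Background-subtracted signal expressed as percent inhibition versus vehicle at 6-6.5 or 8-9 h, or as percent control AUC.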

Test [1] concerns CsgA gene expression (csgBAC promoter-GFP reporter) in E. coli UTI89. The test is described as follows: In vitro live cell fluorescent reporter assay of CsgA transcription (Reporter Assay). It is filed as cell-based. To be noted: Escherichia coli; for pIC50: read-out: Reporter Assay Abs IC50 (activity range), median Abs IC50 in the CsgA reporter assay, class symbol; for IC50: read-out: Reporter Assay Abs IC50 (μM), median Abs IC50 in the CsgA reporter assay, N/A = maximum expression reduction is <50% of control. An outline of the steps:
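Chromosomal single-copy csgBAC promoter–GFP reporter in E. coli UTI89, started at OD600 0.003 in YESCA broth with compound (0.14–100 μM, 1% DMSO), 20 h at 27 °C. GFP (ex 485/em 525 nm) background-subtracted and normalized to vehicle; IC50 and X[50] from curve fits. OD600 tracked growth effects.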
On the technique in general: A reporter such as luciferase makes a cellular process visible.

Where [2] appears, read: read-out: CsgA ThT Assay (10 μM CsgA) % Control AUC at 1005 minutes, 25 μM (activity range), CsgA 10 μM, black plates, class symbol.
[3] abbreviates: read-out: CsgA ThT Assay (10 μM CsgA) % Control AUC at 1005 minutes, 25 μM, mean AUC as % of DMSO control, CsgA 10 μM, black plates.
Where [4] appears, read: read-out: CsgA ThT Assay (10 μM CsgA) % Control AUC at 1005 minutes, 100 μM (activity range), CsgA 10 μM, black plates, class symbol.
The mark [5] stands for this setting: read-out: CsgA ThT Assay (10 μM CsgA) % Control AUC at 1005 minutes, 100 μM, mean AUC as % of DMSO control, CsgA 10 μM, black plates.

pIC50: −log10 of the molar value. Where two headings read alike, the source gives them in different places.

T1 sequence (P28307 23-151): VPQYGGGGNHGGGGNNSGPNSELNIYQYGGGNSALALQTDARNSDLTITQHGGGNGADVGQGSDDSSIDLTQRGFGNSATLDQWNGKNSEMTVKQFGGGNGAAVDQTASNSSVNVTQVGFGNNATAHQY

On to `CCCc1sc2c(-c3cccc(C(F)(F)F)c3)c(Cc3cccc4ccccc34)cc(=O)n2c1C(=O)O` [Compound 061, 7-(naphthalen-1-ylmethyl)-5-oxo-2-propyl-8-(3-(trifluoromethyl)phenyl)-5H-thiazolo[3,2-a]pyridine-3-carboxylic acid], for which the remaining activity at 25 µM is 31 to 60% at E. coli CsgA (setting [2]) and 44% on E. coli CsgA (setting [3]). For the same compound, the figures for the remaining activity at 100 µM on E. coli CsgA (setting [4]) and on E. coli CsgA (setting [5]) were 31 to 60% and 45%, respectively. The pIC50 (commonly the negative decadic logarithm of the IC50, by convention in mol/L) in test [1] is 5.35 to 5.89. Further, in test [1], the IC50 (in general, the concentration that inhibits the measured activity by half) worked out at 2.1 µM.

For `O=C(O)C1CSc2c(-c3cccc(C(F)(F)F)c3)c(C(F)(F)c3cccc4ccccc34)nc(=O)n21` (stereo not drawn) [Compound 063, 7-(difluoro(naphthalen-1-yl)methyl)-5-oxo-8-(3-(trifluoromethyl)phenyl)-2,3-dihydro-5H-thiazolo[3,2-c]pyrimidine-3-carboxylic acid], the remaining activity at 25 µM on E. coli CsgA (setting [2]) is over 60%; at E. coli CsgA (setting [3]), 61%. The remaining activity at 100 µM at E. coli CsgA (setting [4]) is 11 to 31%; on E. coli CsgA (setting [5]), 21%. The pIC50 in test [1] is under 5.00. In addition, the concentration for half-maximal inhibition (IC50) in test [1] was found to be 11.2 µM.

With `Nc1c(Cc2cccc3ccccc23)c(-c2cccc(C(F)(F)F)c2)c2n(c1=O)C(C(=O)O)CO2` (stereo not drawn) [Compound 069, 6-amino-7-(naphthalen-1-ylmethyl)-5-oxo-8-(3-(trifluoromethyl)phenyl)-2,3-dihydro-5H-oxazolo[3,2-a]pyridine-3-carboxylic acid], the remaining activity at 25 µM on E. coli CsgA (setting [2]) was 31 to 60%; on E. coli CsgA (setting [3]), 58%. In addition, the remaining activity at 100 µM at E. coli CsgA (setting [4]) is 11 to 31%; at E. coli CsgA (setting [5]), 14%. Moreover, in test [1], the pIC50 was 5.00 to 5.34. Moreover, the concentration for half-maximal inhibition (IC50) in test [1] amounted to 5.7 µM.

For `CN1CC(C(=O)O)n2c(c(-c3cccc(C(F)(F)F)c3)c(Cc3cccc4ccccc34)c(NC3CCOCC3)c2=O)S1(=O)=O` (stereo not drawn) [Compound 072, 2-methyl-8-(naphthalen-1-ylmethyl)-6-oxo-7-((tetrahydro-2H-pyran-4-yl)amino)-9-(3-(trifluoromethyl)phenyl)-3,4-dihydro-2H,6H-pyrido[1,2-e][1,2,5]thiadiazine-4-carboxylic acid 1,1-dioxide], the remaining activity at 25 µM is 11 to 31% at E. coli CsgA (setting [2]) and 24% on E. coli CsgA (setting [3]). In addition, the remaining activity at 100 µM is under 10% on E. coli CsgA (setting [4]) and 10% at E. coli CsgA (setting [5]). Further, the pIC50 in test [1] is 5.00 to 5.34. The IC50 in test [1] worked out at 6.9 µM.

Consider `CN1CC(C(=O)O)n2c(c(-c3cccc(C(F)(F)F)c3)c(Cc3cccc4ccccc34)c(CO)c2=O)S1(=O)=O` (stereo not drawn) [Compound 077, 7-(hydroxymethyl)-2-methyl-8-(naphthalen-1-ylmethyl)-6-oxo-9-(3-(trifluoromethyl)phenyl)-3,4-dihydro-2H,6H-pyrido[1,2-e][1,2,5]thiadiazine-4-carboxylic acid 1,1-dioxide], for which the remaining activity at 25 µM was over 60% at E. coli CsgA (setting [2]) and 97% on E. coli CsgA (setting [3]). In addition, the remaining activity at 100 µM is over 60% on E. coli CsgA (setting [4]) and 87% at E. coli CsgA (setting [5]). Further, the pIC50 in test [1] is under 5.00. For the same compound, in test [1], the IC50 worked out at 51.6 µM.

`C=Cc1c(Cc2cccc3ccccc23)c(-c2cccc(C(F)(F)F)c2)c2n(c1=O)C(C(=O)O)CN(C)S2(=O)=O` (stereo not drawn) [Compound 078, 2-methyl-8-(naphthalen-1-ylmethyl)-6-oxo-9-(3-(trifluoromethyl)phenyl)-7-vinyl-3,4-dihydro-2H,6H-pyrido[1,2-e][1,2,5]thiadiazine-4-carboxylic acid 1,1-dioxide]: the remaining activity at 25 µM is 11 to 31% on E. coli CsgA (setting [2]) and 19% at E. coli CsgA (setting [3]). The remaining activity at 100 µM on E. coli CsgA (setting [4]) was 11 to 31%; on E. coli CsgA (setting [5]) it was 12%. Moreover, in test [1], the pIC50 is 5.00 to 5.34. In addition, the IC50 in test [1] is 5.1 µM.

On to `CN1CC(C(=O)O)n2c(c(-c3cccc(C(F)(F)F)c3)c(Cc3cccc4ccccc34)c(N3CCOCC3)c2=O)S1(=O)=O` (stereo not drawn) [Compound 079, 2-methyl-7-morpholino-8-(naphthalen-1-ylmethyl)-6-oxo-9-(3-(trifluoromethyl)phenyl)-3,4-dihydro-2H,6H-pyrido[1,2-e][1,2,5]thiadiazine-4-carboxylic acid 1,1-dioxide], for which the values for the remaining activity at 25 µM at E. coli CsgA (setting [2]) and on E. coli CsgA (setting [3]) were 31 to 60% and 40%, respectively. For the same compound, the values for the remaining activity at 100 µM at E. coli CsgA (setting [4]) and at E. coli CsgA (setting [5]) were 11 to 31% and 14%, respectively. The negative-log IC50 (pIC50) in test [1] is under 5.00. In addition, in test [1], the IC50 was 10.7 µM.

For `O=C(O)C1CNc2c(-c3cccc(C(F)(F)F)c3)c(Cc3cccc4ccccc34)cc(=O)n21` (stereo not drawn) [Compound 080, 7-(naphthalen-1-ylmethyl)-5-oxo-8-(3-(trifluoromethyl)phenyl)-1,2,3,5-tetrahydroimidazo[1,2-a]pyridine-3-carboxylic acid], the values for the remaining activity at 25 µM on E. coli CsgA (setting [2]) and on E. coli CsgA (setting [3]) were over 60% and 80%, respectively. The remaining activity at 100 µM at E. coli CsgA (setting [4]) was over 60%; on E. coli CsgA (setting [5]) it was 72%. In addition, the pIC50 in test [1] is under 5.00. Also, the IC50 in test [1] came out at 26.3 µM.

As for `O=C(O)C1CS(=O)(=O)c2c(-c3cccc(C(F)(F)F)c3)c(C(F)(F)c3cccc4ccccc34)cc(=O)n21` (stereo not drawn) [Compound 081, 7-(difluoro(naphthalen-1-yl)methyl)-5-oxo-8-(3-(trifluoromethyl)phenyl)-2,3-dihydro-5H-thiazolo[3,2-a]pyridine-3-carboxylic acid 1,1-dioxide], the remaining activity at 25 µM at E. coli CsgA (setting [2]) is 11 to 31%; at E. coli CsgA (setting [3]), 25%. Besides, the remaining activity at 100 µM at E. coli CsgA (setting [4]) is 11 to 31%; on E. coli CsgA (setting [5]) it was 24%. The pIC50 in test [1] is under 5.00. Further, in test [1], the IC50 was 16.5 µM.

As to `Nc1c(Cc2cccc3ccccc23)c(-c2cccc(C(F)(F)F)c2)c2n(c1=O)C(C(=O)O)CNS2(=O)=O` (stereo not drawn) [Compound 082, 7-amino-8-(naphthalen-1-ylmethyl)-6-oxo-9-(3-(trifluoromethyl)phenyl)-3,4-dihydro-2H,6H-pyrido[1,2-e][1,2,5]thiadiazine-4-carboxylic acid 1,1-dioxide], the results for the remaining activity at 25 µM at E. coli CsgA (setting [2]) and at E. coli CsgA (setting [3]) were 31 to 60% and 51%, respectively. In addition, the figures for the remaining activity at 100 µM on E. coli CsgA (setting [4]) and at E. coli CsgA (setting [5]) were 11 to 31% and 12%, respectively. In addition, the pIC50 in test [1] was under 5.00. The IC50 in test [1] was found to be 17.5 µM.

Take `CN(C)Cc1c(Cc2cccc3ccccc23)c(-c2cccc(C(F)(F)F)c2)c2n(c1=O)C(C(=O)O)CS2(=O)=O` (stereo not drawn) [Compound 083, 6-((dimethylamino)methyl)-7-(naphthalen-1-ylmethyl)-5-oxo-8-(3-(trifluoromethyl)phenyl)-2,3-dihydro-5H-thiazolo[3,2-a]pyridine-3-carboxylic acid 1,1-dioxide]: the remaining activity at 25 µM is over 60% on E. coli CsgA (setting [2]) and 102% on E. coli CsgA (setting [3]). Moreover, the remaining activity at 100 µM on E. coli CsgA (setting [4]) is over 60%; at E. coli CsgA (setting [5]) it was 80%. The pIC50 in test [1] is under 5.00. The IC50 in test [1] worked out at 14.6 µM.

On to `O=C(O)C1CN(CCO)S(=O)(=O)c2c(-c3cccc(C(F)(F)F)c3)c(Cc3cccc4ccccc34)cc(=O)n21` (stereo not drawn) [Compound 084, 2-(2-hydroxyethyl)-8-(naphthalen-1-ylmethyl)-6-oxo-9-(3-(trifluoromethyl)phenyl)-3,4-dihydro-2H,6H-pyrido[1,2-e][1,2,5]thiadiazine-4-carboxylic acid 1,1-dioxide], for which the remaining activity at 25 µM was 31 to 60% on E. coli CsgA (setting [2]) and 57% at E. coli CsgA (setting [3]). Also, the values for the remaining activity at 100 µM at E. coli CsgA (setting [4]) and at E. coli CsgA (setting [5]) were 11 to 31% and 19%, respectively. The pIC50 in test [1] is under 5.00. In addition, in test [1], the IC50 turned out to be 27 µM.

For the compound `O=C(O)C1CN(CCCCO)S(=O)(=O)c2c(-c3cccc(C(F)(F)F)c3)c(Cc3cccc4ccccc34)cc(=O)n21` (stereo not drawn) [Compound 085, 2-(4-hydroxybutyl)-8-(naphthalen-1-ylmethyl)-6-oxo-9-(3-(trifluoromethyl)phenyl)-3,4-dihydro-2H,6H-pyrido[1,2-e][1,2,5]thiadiazine-4-carboxylic acid 1,1-dioxide], the remaining activity at 25 µM was 31 to 60% on E. coli CsgA (setting [2]) and 52% at E. coli CsgA (setting [3]). The remaining activity at 100 µM at E. coli CsgA (setting [4]) was 11 to 31%; at E. coli CsgA (setting [5]), 18%. For the same compound, the pIC50 in test [1] was under 5.00. Besides, in test [1], the IC50 amounted to 15.3 µM.

The values are drawn from patent US20230131899A1, “INHIBITORS OF MICROBIALLY INDUCED AMYLOID” (Axial Therapeutics, Inc., priority 2020, published 2023).
